Measured values reported in patent publication US20260117274A1, “ORTHOGONALLY CROSSLINKED PROTEINS, METHODS OF MAKING, AND USES THEREOF” (The Research Foundation for The State University of New York, priority 2022, published 2026).

Experiments:
[1] = NMR-based stability assay toward glutathione; format: physicochemical; settings: 10 mM glutathione in PBS for 3 days
Source text: We envisioned this acyl transfer-based crosslinking could proceed under neutral conditions if we can identify an appropriate genetically encoded leaving group. To this end, we considered a panel of azoles with pKa values ranging from 19.8 to 8.2, and a varying degree of leaving group effect (FIG. 1a). […] Thus, we designed a series of N-carboxy-4-aryl-1,2,3-triazole-containing lysines (CATK-1-7) as well as three analogous triazolyl lysines, CATK-8, -8a, and -9, for comparison purposes (FIG. 1b). For the synthesis of CATK-1-9, the critical step involved the triphosgene-mediated coupling of aryl- or alkyl-substituted triazoles with a protected lysine. While there was no apparent selectivity for N^2-carbamoylated CATKs, the two regioisomers can be readily separated by flash chromatography. After deprotection, CATK-1-9 were obtained in 7-52% yields. […] Since analogous 1,2,4-triazoles have also been used in designing small-molecule probes for serine hydrolases, we synthesized 1,2,4-triazole-based CATK-9 in four steps with an overall yield of 43%.
In our efforts to identify genetically encoded amino acids that are stable under physiological conditions yet reactive upon photoactivation or through proximity effect, we were intrigued by β-lactam, a venerable chemical moiety found in penicillin and other β-lactam class of antibiotics. […]

CATKRS = target: T1, CATKRS (Methanosarcina mazei, UniProt Q8PWY1, C348F/L309A/Y306V/Y384F); test: Fluorescence-based detection of CATK incorporation into sfGFP-Q204TAG in BL21(DE3) cells; format: cell-based; settings: 1 mM CATK
T1 construct: expressed in transfected cells; host or cells: E. coli BL21(DE3) transformed with pEVOL-CATKRS
T1 sequence (Q8PWY1 whole entry Y306V/L309A/C348F/Y384F): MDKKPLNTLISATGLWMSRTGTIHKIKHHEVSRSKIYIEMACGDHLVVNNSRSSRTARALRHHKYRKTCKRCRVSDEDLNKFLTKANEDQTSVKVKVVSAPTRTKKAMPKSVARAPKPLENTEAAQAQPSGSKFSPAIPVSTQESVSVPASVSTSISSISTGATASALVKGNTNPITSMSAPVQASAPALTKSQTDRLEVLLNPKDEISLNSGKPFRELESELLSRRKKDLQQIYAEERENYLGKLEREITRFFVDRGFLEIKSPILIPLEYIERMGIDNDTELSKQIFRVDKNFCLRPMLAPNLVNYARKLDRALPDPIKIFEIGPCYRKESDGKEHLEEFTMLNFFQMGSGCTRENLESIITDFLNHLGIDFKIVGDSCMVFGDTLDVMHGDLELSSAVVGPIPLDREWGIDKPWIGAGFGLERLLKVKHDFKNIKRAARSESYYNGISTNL
Source text: (§1) To identify pyrrolysine-tRNA synthetase (PylRS) variants that can charge CATKs, we co-transformed BL21(DE3) cells with two plasmids: pEVOL-PylRS encoding PylRS and tRNACUA, and pET-sfGFP-Q204TAG encoding sfGFP bearing an amber codon. We screened a panel of PylRS variants (Table 1), and found one carrying Y306V, L309A, C348F, and Y384F mutations, hereafter referred to as CATKRS, can charge CATK-1, -2, -4, and -7 site-specifically into sfGFP (FIGS. 2b and 10). The incorporations were also confirmed by SDS-PAGE (FIG. 10) and QTOF-LC/MS analyses (FIGS. 2c and 11). Some amount of GSH adducts (˜30%) were detected, presumably due to the high reactivity of CATKs at position-204, a site on sfGFP that is completely solvent exposed.
Site-specific incorporation of CATK into sfGFP. BL21(DE3) cells (50 μL) were co-transformed with the pET-sfGFP-Q204TAG and pEVOL-CATKRS plasmids using the heat shock method. The cells were recovered in 900 μL SOC at 37° C. for 1 hour before plating onto a Luria-Bertani (LB) agar plate containing 100 μg/mL ampicillin and 34 μg/mL chloramphenicol. A single colony from the plate was used to inoculate 6 mL LB broth containing 100 μg/mL ampicillin and 34 μg/mL chloramphenicol. One hundred twenty […] overnight culture was used to inoculate 12 mL LB broth containing the same concentrations of antibiotics. […] The culture was divided into two 6-mL portions. […] The cultures were incubated in an incubator-shaker (37° C., 280 rpm) for 8 hours. […] The supernatant was directly used for fluorescence tests after sonication and centrifugation. […] The mixture was incubated for 2 hours with gentle shaking.

[2] = cited from earlier work
[3] = Stability under bacterial culture conditions (intact mass of sfGFP mutants)
Source text: as §1
To identify an aminoacyl-tRNA synthetase/tRNA pair for charging two phenylalanine derivatives, we screened our collection of pyrrolysine-tRNA synthetases (PylRS) (Table 1) using superfolder green fluorescent protein bearing an amber codon at position-204 (sfGFP-Q204TAG) as a reporter without success (FIG. 37). In parallel, to our delight, we found wild-type PylRS efficiently charges BeLaK into sfGFP-Q204TAG, with the cell lysate showing a 75-fold increase in fluorescence over the background, similar to BocK, a known substrate for wild-type PylRS (FIG. 32b). We also obtained the crystal structure of a protected BeLaK analog S11 (FIG. 38). […]

wild-type PylRS = target: T2, wild-type PylRS (Methanosarcina mazei, UniProt Q8PWY1); test: Fluorescence-based detection of BeLaK incorporation into sfGFP-Q204TAG; format: cell-based; settings: 1 mM BeLaK
T2 construct: expressed in transfected cells; host or cells: E. coli BL21(DE3) transformed with pEVOL-PylRS
T2 sequence (Q8PWY1 whole entry): as the sequence (Q8PWY1 whole entry Y306V/L309A/C348F/Y384F) above, with V306Y, A309L, F348C, F384Y counted along it
Source text: To identify an aminoacyl-tRNA synthetase/tRNA pair for charging two phenylalanine derivatives, we screened our collection of pyrrolysine-tRNA synthetases (PylRS) (Table 1) using superfolder green fluorescent protein bearing an amber codon at position-204 (sfGFP-Q204TAG) as a reporter without success (FIG. 37). In parallel, to our delight, we found wild-type PylRS efficiently charges BeLaK into sfGFP-Q204TAG, with the cell lysate showing a 75-fold increase in fluorescence over the background, similar to BocK, a known substrate for wild-type PylRS (FIG. 32b). We also obtained the crystal structure of a protected BeLaK analog S11 (FIG. 38). We note the lactam ring forms an intramolecular H-bond with the lysine ε-N—H (FIG. 32a), mimicking the pyrroline ring in pyrrolysine—the native substrate of PylRS.
Site-specific incorporation of BeLaK into sfGFP. BL21(DE3) cells (50 μL) were co-transformed with the pET-sfGFP-Q204TAG and pEVOL-PylRS plasmids using the heat shock method. The cells were recovered in 900 μL SOC at 37° C. for 1 hour before plating onto a Luria-Bertani (LB) agar plate containing 100 μg/mL ampicillin and 34 μg/mL chloramphenicol. A single colony from the plate was used to inoculate 6 mL LB broth containing 100 μg/mL ampicillin and 34 μg/mL chloramphenicol. […] The supernatant was directly used for fluorescence tests after sonication and centrifugation. […]

[4] = test system: mCherry-TAG-EGFP-HA reporter; test: Site-specific incorporation into mCherry-TAG-EGFP in HEK293T cells; format: cell-based, Human; settings: CATKRS/tRNA^Pyl, 0.5 mM CATK-1, fluorescence microscopy and western blot
Source text: (§2) To examine whether CATKs are compatible with genetic code expansion in mammalian cells, we first performed a cell viability assay by treating HEK293T cells with CATK-1 and -2 at various concentrations. […] We then cotransfected HEK293T cells with two plasmids: one encodes CATKRS/tRNA^Pyl, and the other encodes the mCherry-TAG-EGFP-HA reporter. The transfected cells were allowed to grow in DMEM supplemented with 10% FBS in the absence or presence of CATK-1.
Site-specific incorporation of CATK-1 into mCherry-TAG-EGFP in mammalian cells. Human Embryonic Kidney 293T (HEK293T) cells were seeded in a 12-well plate and grown in DMEM supplemented with 10% FBS (HyClone™ GE Healthcare Life Sciences) and 10 μg/mL Gentamycin (Gibco) and 2 μg/mL Plasmocin at 37° C., 5% CO2 until ˜90% confluency. The medium was replaced with DMEM, and cells were transfected by using polyethylenimine (Sigma-Aldrich) in Opti-MEM® (Gibco) with two plasmids (one encoding CATKRS/tRNAPyl CUA pair and another encoding mCherry-TAG-EGFP-HA). Six hours post-transfection, the medium was replaced with fresh DMEM with 10% FBS in the presence or absence of 0.5 mM CATK-1. After 24 hours, live cell images were recorded using the Lionheart™ FX automated microscope (BioTek). The cells were lysed by modified RIPA buffer (25 mM Tris HCl, pH 7.4, 150 mM NaCl, 1% NP-40, 1% sodium deoxycholate, 0.1% SDS, 1 mM EDTA, 1 mM PSMF). […]

HEK293T cells = format: cell-based; settings: human, 24 h
Source text: as §2
Cell viability assay. One hundred μL exponentially growing HEK293T cells were seeded into a 96-well plate at a density of 5×10^5 cells per ml. After 24 h, the cells were treated with varying concentrations of CATK amino acids and then incubated at 37° C. for 24 h. Then, 10 μL CCK-8 solution (Dojindo) was added to each well and the cells were further incubated in 37° C. incubator for 1 h. The plates were read immediately using Biotek microtiter plate reader at 450 nm.

| SMILES | stability after incubation with glutathione [1] | site-specific charging into sfGFP by CATKRS (CATKRS) | further results |
| --- | --- | --- | --- |
| N[C@@H](Cc1ccc(N2CCC2=O)cc1)C(=O)O [BeLaF-2, (S)-2-amino-3-(4-(2-oxoazetidin-1-yl)phenyl)propanoic acid] | remained intact | – | – |
| Cn1cccc1-c1cnn(C(=O)NCCCC[C@H](N)C(=O)O)n1 [CATK-7, N^6-(4-(1-Methyl-1H-pyrrol-2-yl)-2H-1,2,3-triazole-2-carbonyl)-L-lysine] | – | can charge | – |
| c1cn[nH]n1 [2H-1,2,3-trizole] | – | – | pKa [2]: 9.4 |
| N[C@@H](CCCCNC(=O)n1ncc(-c2cccs2)n1)C(=O)O [CATK-4, N^6-(4-(Thiophen-2-yl)-2H-1,2,3-triazole-2-carbonyl)-L-lysine] | – | can charge | – |
| N[C@@H](CCCCNC(=O)N1CCC1=O)C(=O)O [BeLaK, N^6-(2-Oxoazetidine-1-carbonyl)-L-lysine] | remained intact | – | stability under bacterial culture conditions [3]: stable under bacterial culture conditions; increase in fluorescence of cell lysate over the background (wild-type PylRS): 75 fold |
| N[C@@H](CCCCNC(=O)n1ncc(-c2ccccc2)n1)C(=O)O [CATK-1, N^6-(4-Phenyl-2H-1,2,3-triazole-2-carbonyl)-L-lysine] | – | can charge | incorporation into mCherry-TAG-EGFP-HA [4]: successful CATK-1 incorporation; concentrations at which cytotoxicity was not detected (HEK293T cells): ≤ 500 µM |
